Experimental data as given in patent US20240140953A1, “INHIBITORS OF MENIN-MLL INTERACTION” (BIOMEA FUSION, INC., priority 2018, published 2024).
Like-named read-outs stand apart in the source and are kept apart here.

Assays:
MOLM-13 (MLL-AF9) [1] = experiment: LTP assay, CellTiterGlo, T4-T14 (Example 103), MOLM-13; format: cell-based, human; details: for IC50: Homo sapiens; for inhibition of cell viability (in words): MOLM-13, LTP assay
Protocol: (§1) The day of the experiment (T0) all the cell line suspensions were counted by Cell Viability Analyser, Vi-CELL and properly diluted with fresh medium to obtain the cell density reported in the Test System paragraph.
(§2) Cells were tested after 4 passages after thawing.
(§3) 200 μL/well and 150 μL/well of cell suspension were added into the 0.4 μL/well and 0.3 μL/well compound plates, respectively. • Cell plate containing 200 μL/well suspension was incubated at 37° C. in a humidified incubator with 5% CO2. • From each well of the 150 μL/well cell assay plate, 100 μL were harvested and transferred into a 96-well Optiplate (Perkin Elmer, Cat. n. 6005290) and cell viability was measured as described in 4.3 paragraphs (T0).
(§4) After four days in culture (T4) 150 μL/well of fresh medium were added into a new 0.3 μL/well copy compound plate. • From each well of the 200 μL/well cell assay plate: • 100 μL were sampled for the cell viability measurement as described in 4.3 paragraphs (T4). • 50 μL were harvested and added to the 150 μL/well compound plate prepared as described in the first point to dilute 1:4 the cell suspension. • The cell assay plate diluted and containing 200 μL/well suspension were incubated at 37° C. in a humidified incubator with 5% Co2.
(§5) At T7-T11-T14 it was proceeded as described in T4, with the exception that no further cell dilution was carried out at T14.
(§6) Plates containing the samples to be tested were equilibrated at room temperature for approximately 30 min and then 30 μL/well of the Promega CellTiterGlo® reagent were added.
(§7) Contents will be mixed for 5 min on an orbital shaker to induce cell lysis and then incubated at room temperature for an additional 10 min to stabilize the luminescent signal.
(§8) Luminescence was read by using VictorV (Perkin Elmer) multilabel plate reader using the standard protocol for luminescence in 96 well plate.
(§9) Data were expressed as % of inhibition compared to the 0.2% DMSO negative control, and was calculated as follows: […]
(§10) CRCs were analysed by GraphPad and IC50 values were calculated by non-linear regression using 4 parameter-logistic equation. IC50 (μM) values were reported in the final data table.
(§11) The curve fittings were performed leaving free all the parameters. Any constrain were reported in the results table.

HL-60 [2] = experiment: LTP assay, CellTiterGlo, T4-T14 (Example 103), HL-60; format: cell-based; details: for inhibition of cell viability (in words): HL-60, LTP assay
Protocol: as §1, §2, §3, §4, §5, §6, §7, §8, §9, §10, §11

RS4-11 (MLL-AF4) = experiment: LTP assay, CellTiterGlo, T4-T14 (Example 103), RS4-11; format: cell-based; details: for IC50: Homo sapiens; for inhibition of cell viability (in words): RS4;11, LTP assay
Protocol: as §1, §2, §3, §4, §5, §6, §7, §8, §9, §10, §11

MV4-11 (MLL-AF4) [3] = experiment: LTP assay, CellTiterGlo, T4-T14 (Example 103), MV4-11; format: cell-based, human; details: for IC50: Homo sapiens; for inhibition of cell viability (in words): MV4-11, LTP assay
Protocol: as §1, §2, §3, §4, §5, §6, §7, §8, §9, §10, §11

HL-60 [4] = experiment: Proliferation study, CellTiterGlo, 4 days (Example 102), HL-60; format: cell-based; details: HL-60, 4 days treatment
Text: (§12) The objective of the study was to evaluate the ability of representative compounds of the present invention, inhibitors of Menin/MLL interaction to inhibit cell proliferation. The proliferation inhibitory effect was investigated in two human MLL-leukemia cells selected on the bases of MLL fusion protein and listed in Table 102. HL-60 cell line was used as negative control.
(§13) ATP is present in all metabolically active cells and is considered as a marker for cell viability and proliferation. The metabolic cell activity was determined using the CellTiter-Glo kit from Promega, an ATP monitoring system based on the production of luminescence by the reaction of ATP with added UltraGlo® recombinant luciferase (Kawano et al., 2016), according to the supplier's experimental recommendations.
(§14) The described assay evaluates the ability of 4 representative compounds to inhibit the cell proliferation in the human MLL-leukemia cells plus a negative control cell line.
(§15) The assay provides potency values (IC50) for each test compound at a single time point Day 4 (T4).
(§16) Seven concentrations of the compounds (2.00E-05-6.67E-06-2.22E-06-7.41E-07-2.47E-07-8.23E-08-2.74E-08M), were assessed in duplicate in an individual test occasion in all the cell lines. MI-503 (Borkin et al., 2015) was used as reference compound and was tested at the same concentrations as the NCEs. 100% of proliferation is represented by the untreated cells (0.2% DMSO). The cell growth was monitored up to 4 days in culture.
(§17) MV4-11, MOLM-13 and HL-60 cells (see Table 2) were maintained in RPMI-1640 medium (Invitrogen, Cat. n. 618700, Batch n. 1965930) supplemented with 10% of Heat Inactivated FBS (Invitrogen, Cat n. 10500, Batch n. 08Q8078K) and 1% Pen-Strep (Invitrogen, Cat. N. 15140, Batch n. 1910859) and cultured at 37° C. in a humidified incubator with 5% CO2. All the cell lines grow in suspension and the cell density was maintained in a range of 2×10^5-1×10^6 viable cells/ml. Cells were pelleted at 130 g×5 min and conditioned medium was used to dilute the cell suspension.
(§18) Test items were dissolved in glass vials at 10 mM in DMSO with purity ≥99.9% (Sigma, D8418, batch n. SHBH4245V) and stored at −20° C. in 1.5 mL Eppendorf tubes.
(§19) Serial dilutions 1 to 3 in DMSO 100% were prepared starting from a 10 mM stock solutions to generate 7 points concentration response curve (CRC).
(§20) For each plate to test, one 0.4 μL copy plate and four 0.3 μL copy plates were then stamped into 96-well plates not treated for cell adhesion (Sarstedt—cat.no. 82.1581.001) by acoustic liquid Handling, Echo, at a concentration which was 500 fold the final assay concentration. Stamped plates were stored at −20° C. The final concentrations for the reference compound, MI-503, and the test items were: 2.00E-05, 6.67E-06, 2.22E-06, 7.41E-07, 2.47E-07, 8.23E-08 and 2.74E-08 M.
(§21) Cells were plated in 96-well flat bottom microtiter plates at cell density of 15,000 cells/ml for HL-60, 1000 cells/ml for MOLM-13 and 10,000 cell/ml for MV4-11. Cells were treated with 0.2% DMSO (Sigma, D8418, batch n. SHBH4245V) or serial dilutions of compounds (0.027 μM-20 μM) in DMSO (0.2% final concentration). Cells were incubated in a 5% CO2 incubator at 37° C. for 4 days. A CellTiterGlo viability assay (Promega) was employed. Luminescence was read by using VictorV (Perkin Elmer) multilabel plate reader using the standard protocol for luminescence in 96 well plate. The experiment was performed in duplicate.
as §9
(§22) CRCs were analysed by GraphPad and IC50 values were calculated by non-linear regression using 4 parameter-logistic equation. IC50 (μM) values were reported in the final data table. The curve fittings were performed leaving free all the parameters. Any constrain were reported in the results table.

MV4-11 (MLL-AF4) [5] = experiment: Proliferation study, CellTiterGlo, 4 days (Example 102), MV4-11; format: cell-based, human; details: MV4-11, 4 days treatment
Text: as §12, §13, §14, §15, §16, §17, §18, §19, §20, §21, §9, §22

MOLM-13 (MLL-AF9) [6] = experiment: Proliferation study, CellTiterGlo, 4 days (Example 102), MOLM-13; format: cell-based, human; details: MOLM-13, 4 days treatment
Text: as §12, §13, §14, §15, §16, §17, §18, §19, §20, §21, §9, §22

[7] = MOLM-13, 96 h, MOLM-13 (MLL-AF9), T4 (Day 4), read-out: IC50 T4 (Day 4)
[8] = MOLM-13, MOLM-13 (MLL-AF9), T7, read-out: IC50 T7
[9] = MOLM-13, MOLM-13 (MLL-AF9), T11, read-out: IC50 T11
[10] = MOLM-13, MOLM-13 (MLL-AF9), T14, read-out: IC50 T14
[11] = Homo sapiens, HL-60, 96 h, HL-60, T4 (Day 4), read-out: IC50 T4 (Day 4)
[12] = Homo sapiens, HL-60, HL-60, T7, read-out: IC50 T7
[13] = Homo sapiens, HL-60, HL-60, T11, read-out: IC50 T11
[14] = Homo sapiens, HL-60, HL-60, T14, read-out: IC50 T14
[15] = RS4-11, 96 h, RS4-11 (MLL-AF4), T4 (Day 4), read-out: IC50 T4 (Day 4)
[16] = RS4-11, RS4-11 (MLL-AF4), T7, read-out: IC50 T7
[17] = RS4-11, RS4-11 (MLL-AF4), T11, read-out: IC50 T11
[18] = MV4-11, 96 h, MV4-11 (MLL-AF4), T4 (Day 4), read-out: IC50 T4 (Day 4)
[19] = MV4-11, MV4-11 (MLL-AF4), T7, read-out: IC50 T7
[20] = MV4-11, MV4-11 (MLL-AF4), T11, read-out: IC50 T11
[21] = MV4-11, MV4-11 (MLL-AF4), T14, read-out: IC50 T14

IC50 (MOLM-13 (MLL-AF9) [1]; [7])	IC50 (MOLM-13 (MLL-AF9) [1]; [8])	IC50 (MOLM-13 (MLL-AF9) [1]; [9])	IC50 (MOLM-13 (MLL-AF9) [1]; [10])	IC50 (HL-60 [2]; [11])	IC50 (HL-60 [2]; [12])	IC50 (HL-60 [2]; [13])	IC50 (HL-60 [2]; [14])	IC50 (RS4-11 (MLL-AF4); [15])	IC50 (RS4-11 (MLL-AF4); [16])	IC50 (RS4-11 (MLL-AF4); [17])	IC50 (MV4-11 (MLL-AF4) [3]; [18])	IC50 (MV4-11 (MLL-AF4) [3]; [19])	IC50 (MV4-11 (MLL-AF4) [3]; [20])	IC50 (MV4-11 (MLL-AF4) [3]; [21])	Compound	inhibition of cell viability (in words) (MOLM-13 (MLL-AF9) [1])	inhibition of cell viability (in words) (HL-60 [2])	inhibition of cell viability (in words) (RS4-11 (MLL-AF4))	inhibition of cell viability (in words) (MV4-11 (MLL-AF4) [3])	further results
830 nM	740 nM	780 nM	1320 nM	1550 nM	870 nM	650 nM	590 nM	1620 nM	1550 nM	> 5000 nM	1290 nM	1410 nM	50 nM	80 nM	O=C(Nc1ccc(-c2nc3c(N4CCOCC4)nccc3[nH]2)cc1)Nc1cc(-c2cccnc2)n[nH]1 [Compound 19, 1-{4-[4-(morpholin-4-yl)-1H-imidazo[4,5-c]pyridin-2-yl]phenyl}-3-[3-(pyridin-3-yl)-1Hpyrazol-5-yl]urea]	fully inhibits the cell viability	fully inhibits the cell viability	fully inhibits the cell viability	fully inhibits the cell viability	IC50 (HL-60 [2]; HL-60, T7, read-out: IC50 T7): 871 nM
> 5000 nM	> 5000 nM	> 5000 nM	> 5000 nM	> 5000 nM	> 5000 nM	> 5000 nM	> 5000 nM	> 5000 nM	1350 nM	> 5000 nM	> 5000 nM	> 5000 nM	2630 nM	2190 nM	Cc1cn(-c2nccc3[nH]c(-c4ccc(NC(=O)Cc5cc(-c6cccnc6)n[nH]5)cc4)nc23)cn1 [Compound 31, N-[4-[4-(4-methylimidazol-1-yl)-1H-imidazo[4,5-c]pyridin-2-yl]phenyl]-2-(3-pyridin-3-yl-1H-pyrazol-5-yl)acetamide]					
> 5000 nM	> 5000 nM	> 5000 nM	> 5000 nM	> 5000 nM	> 5000 nM	> 5000 nM	> 5000 nM	> 5000 nM	2750 nM	> 5000 nM	> 5000 nM	4900 nM	3090 nM	2690 nM	Cc1ccc(-c2cc(CC(=O)Nc3ccc(-c4nc5c(N6CCOCC6)nccc5[nH]4)cc3)[nH]n2)cn1 [Compound 32]					
> 5000 nM	> 5000 nM	> 5000 nM	> 5000 nM	> 5000 nM	> 5000 nM	> 5000 nM	> 5000 nM	> 5000 nM	> 5000 nM	> 5000 nM	> 5000 nM	> 5000 nM	3310 nM	2340 nM	Cc1nccc2[nH]c(-c3ccc(NC(=O)Cc4cc(-c5cccnc5)n[nH]4)cc3)nc12 [Compound 33]					
															Cc1c(CN2CCC(Nc3ncnc4sc(CC(F)(F)F)cc34)CC2)ccc2c1cc(C#N)n2Cc1cn[nH]c1 [MI-503, reference compound]	fully inhibited cell viability	fully inhibited cell viability	fully inhibited cell viability	fully inhibited cell viability	HL-60 pIC50 (HL-60 [4]; CellTiterGlo): 6.38; IC50 (HL-60 [4]; CellTiterGlo, read-out: HL-60 IC50): 420 nM; HL-60 % max (HL-60 [4]; maximal inhibition): 103%; MV4-11 (MLL-AF4) pIC50 (MV4-11 (MLL-AF4) [5]; CellTiterGlo): 6.73; IC50 (MV4-11 (MLL-AF4) [5]; CellTiterGlo, read-out: MV4-11 (MLL-AF4) IC50): 190 nM; MV4-11 (MLL-AF4) % max (MV4-11 (MLL-AF4) [5]; maximal inhibition): 100%; MOLM-13 (MLL-AF9) pIC50 (MOLM-13 (MLL-AF9) [6]; CellTiterGlo): 6.63; IC50 (MOLM-13 (MLL-AF9) [6]; CellTiterGlo, read-out: MOLM-13 (MLL-AF9) IC50): 230 nM; MOLM-13 (MLL-AF9) % max (MOLM-13 (MLL-AF9) [6]; maximal inhibition): 98%
